Measurements as given in the supplement of paper PMC12669032.

How the values were obtained:
Test in all cases: growth AUC relative to DMSO control (fraction); higher = more growth (less inhibition)
Conditions in all cases: 24 h
[1] = tested on: Parabacteroides distasonis
Method: (§1)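 Validation screen: 11 independently purchased pesticides tested on 8 gut bacterial strains at 2.5–320 µM in mGAM, anaerobic, 37 °C, 24 h. Growth AUC normalised to DMSO controls, mean of 3 independent experiments.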

[2] = tested on: Escherichia coli IAI1
Method: as §1

[3] = tested on: Roseburia intestinalis
Method: as §1

[4] = tested on: Bacteroides uniformis
Method: as §1

[5] = tested on: Lactobacillus gasseri
Method: as §1

[6] = tested on: Clostridium difficile
Method: as §1

[7] = tested on: Eubacterium rectale
Method: as §1

[8] = tested on: Streptococcus salivarius
Method: as §1

CCC(C)[C@H]1O[C@]2(C=C[C@@H]1C)C[C@@H]1C[C@@H](C/C=C(\C)[C@@H](O[C@H]3C[C@H](OC)[C@@H](O[C@H]4C[C@H](OC)[C@@H](O)[C@H](C)O4)[C@H](C)O3)[C@@H](C)/C=C/C=C3\CO[C@@H]4[C@H](O)C(C)=C[C@@H](C(=O)O1)[C@]34O)O2.CO[C@H]1C[C@H](O[C@H]2[C@H](C)O[C@@H](O[C@@H]3/C(C)=C/C[C@@H]4C[C@@H](C[C@]5(C=C[C@H](C)[C@@H](C(C)C)O5)O4)OC(=O)[C@@H]4C=C(C)[C@@H](O)[C@H]5OC/C(=C\C=C\[C@@H]3C)[C@]54O)C[C@@H]2OC)O[C@@H](C)[C@@H]1O (stereo not given in full) [ABAMECTIN]
growth AUC
Conditions | [1] | [2] | [3] | [4] | [5] | [6] | [7] | [8]
2.5 µM | 0.985 | 1.01 | 0.865 | 0.975 | 1.04 | 1.02 | 1.29 | 1.04
5 µM | 0.918 | 0.978 | 0.871 | 0.996 | 1.07 | 0.979 | 1.17 | 0.973
10 µM | 0.409 | 1.01 | 0.564 | 0.968 | 1.03 | 0.968 | 1.05 | 0.983
20 µM | 0.057 | 0.957 | 0.21 | 0.996 | 0.983 | 0.986 | 0.881 | 0.876
40 µM | 0.0234 | 1.01 | 0.121 | 0.974 | 0.952 | 0.966 | 0.774 | 0.894
80 µM | 0.0192 | 1 | 0.102 | 0.971 | 1.02 | 0.887 | 0.892 | 0.887
160 µM | 0.0484 | 0.974 | 0.107 | 0.99 | 0.889 | 0.885 | 0.999 | 1.01

Cc1cc(C(C#N)c2ccc(Cl)cc2)c(Cl)cc1NC(=O)c1cc(I)cc(I)c1O (stereo not given) [CLOSANTEL]
growth AUC
Conditions | [1] | [2] | [3] | [4] | [5] | [6] | [7] | [8]
2.5 µM | 0.245 | 1.07 | 0.246 | 1 | 0.809 | 0.0348 | 0.453 | 1.05
5 µM | 0.00935 | 1.04 | 0.149 | 0.973 | 0.827 | 0.0106 | 0.242 | 1.04
10 µM | 0.00581 | 1.03 | 0.0586 | 0.616 | 0.866 | 0.0157 | 0.0185 | 1.09
20 µM | 0.00682 | 0.929 | 0.0162 | 0.609 | 0.848 | 0.0183 | 0.0129 | 1.06
40 µM | 0.0119 | 0.904 | 0.0268 | 0.573 | 0.815 | 0.00635 | 0.00913 | 1.04
80 µM | 0.0133 | 0.886 | 0.0158 | 0.575 | 0.836 | 0.0171 | 0.0119 | 1.13
160 µM | 0.0101 | 0.861 | 0.0258 | 0.575 | 0.81 | 0.072 | 0.0223 | 1.06

CCCCOC(=O)[C@@H](C)Oc1ccc(Oc2ccc(C#N)cc2F)cc1 [CYHALOFOP-BUTYL]
growth AUC
Conditions | [1] | [2] | [3] | [4] | [5] | [6] | [7] | [8]
2.5 µM | 1.04 | 1.01 | 1.01 | 1.01 | 1.05 | 1.02 | 1.11 | 1.07
5 µM | 0.93 | 0.98 | 0.964 | 0.969 | 0.986 | 0.984 | 1.04 | 1.02
10 µM | 0.859 | 0.975 | 1.02 | 0.994 | 0.986 | 0.98 | 1.05 | 0.957
20 µM | 0.717 | 0.972 | 0.891 | 0.937 | 0.981 | 1.03 | 0.967 | 0.972
40 µM | 0.643 | 0.996 | 0.981 | 0.971 | 0.956 | 1.02 | 1.02 | 0.981
80 µM | 0.684 | 0.979 | 0.976 | 0.99 | 1.01 | 0.992 | 1.13 | 0.999
160 µM | 0.588 | 0.992 | 0.998 | 0.968 | 0.969 | 1.01 | 1.18 | 1.01
320 µM | 0.437 | 1 | 0.918 | 0.925 | 0.975 | 0.977 | 1.28 | 1.1

O=[N+]([O-])c1cc(C(F)(F)F)c(Cl)c([N+](=O)[O-])c1Nc1ncc(C(F)(F)F)cc1Cl [FLUAZINAM]
growth AUC
Conditions | [1] | [2] | [3] | [4] | [5] | [6] | [7] | [8]
2.5 µM | 0.966 | 1.03 | 1.01 | 1.04 | 1.01 | 0.99 | 1.04 | 1.04
5 µM | 0.859 | 1.01 | 1.08 | 1.02 | 0.968 | 0.995 | 0.887 | 1
10 µM | 0.411 | 1.03 | 0.959 | 0.996 | 0.921 | 0.969 | 0.692 | 0.984
20 µM | 0.0128 | 0.912 | 0.879 | 0.807 | 0.844 | 0.909 | 0.227 | 0.815
40 µM | 0.0301 | 0.934 | 0.584 | 0.593 | 0.847 | 0.0127 | 0.0306 | 0.992

CCCC1COC(Cn2cncn2)(c2ccc(Cl)cc2Cl)O1 (stereo not given) [PROPICONAZOLE]
growth AUC
Conditions | [1] | [2] | [3] | [4] | [5] | [6] | [7] | [8]
2.5 µM | 1.12 | 1 | 0.971 | 1.03 | 1.03 | 0.982 | 1.19 | 1.1
5 µM | 1 | 0.993 | 0.925 | 0.99 | 0.968 | 1.01 | 0.951 | 1.04
10 µM | 0.988 | 0.971 | 1.01 | 1.02 | 1.02 | 0.967 | 0.703 | 1.06
20 µM | 0.874 | 0.981 | 0.894 | 0.97 | 0.96 | 1.03 | 0.475 | 0.994
40 µM | 0.488 | 0.999 | 0.947 | 0.951 | 0.972 | 0.981 | 0.344 | 1.04
80 µM | 0.284 | 0.975 | 0.716 | 0.915 | 0.94 | 0.979 | 0.0163 | 1.06
160 µM | 0.0246 | 0.996 | 0.202 | 0.831 | 0.851 | 0.885 | 0.0214 | 1.03
320 µM | 0.0187 | 0.994 | 0.0162 | 0.618 | 0.832 | 0.385 | 0.0204 | 0.932
